Reference: ChEMBL document CHEMBL1201862, “PubChem BioAssay data set” (2004)
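Where inhibition never reached the appropriate level, the endpoint shown equals the highest concentration tested. Otherwise, values were interpolated linearly from a five-concentration, 48-hour dose response in 96-well plates. GI50 = concentration required for 50% inhibition of growth.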 Active and inactive are the calls of the source. Cut-off read from the data, not from the text of the source: active = GI50 up to about 1.1 µM and inactive = higher.

Key:
Experiment in all cases: NCI tumour cell line growth inhibition, 48 h
KM12 = test system: KM12
K562 = test system: K562
MCF7 = test system: MCF7
CAKI-1 = test system: CAKI-1
SK-MEL-5 = test system: SK-MEL-5
COLO 205 = test system: COLO 205
OVCAR-4 = test system: OVCAR-4
IGROV-1 = test system: IGROV-1
EKVX = test system: EKVX
TK-10 = test system: TK-10
OVCAR-8 = test system: OVCAR-8
NCI-H522 = test system: NCI-H522
A498 = test system: A498
BT-549 = test system: BT-549
SR = test system: SR
MOLT-4 = test system: MOLT-4
SN12C = test system: SN12C
OVCAR-3 = test system: OVCAR-3
T47D = test system: T47D
U-251 = test system: U-251
HCT-116 = test system: HCT-116
LOX IMVI = test system: LOX IMVI
NCI-H460 = test system: NCI-H460
HL-60 = test system: HL-60
NCI/ADR-RES = test system: NCI/ADR-RES
RPMI-8226 = test system: RPMI-8226
HCC 2998 = test system: HCC 2998
HCT-15 = test system: HCT-15
UACC-62 = test system: UACC-62
SF-268 = test system: SF-268
HOP-62 = test system: HOP-62
NCI-H23 = test system: NCI-H23
Malme-3M = test system: Malme-3M
MDA-MB-231 = test system: MDA-MB-231
SK-MEL-2 = test system: SK-MEL-2
UO-31 = test system: UO-31
SK-MEL-28 = test system: SK-MEL-28
MDA-N = test system: MDA-N
A549 = test system: A549
SK-OV-3 = test system: SK-OV-3
HOP-92 = test system: HOP-92
RXF 393 = test system: RXF 393
SNB-75 = test system: SNB-75
NCI-H226 = test system: NCI-H226
SF-295 = test system: SF-295
HT-29 = test system: HT-29
SW-620 = test system: SW-620
M14 = test system: M14
CCRF-CEM = test system: CCRF-CEM
DU-145 = test system: DU-145
OVCAR-5 = test system: OVCAR-5
ACHN = test system: ACHN
MDA-MB-435 = test system: MDA-MB-435
UACC-257 = test system: UACC-257
SF-539 = test system: SF-539
786-0 = test system: 786-0
PC-3 = test system: PC-3
Hs-578T = test system: Hs-578T
SNB-19 = test system: SNB-19

Structure (SMILES): CCOC(=O)C(Cc1ccc(O)cc1)Nc1nc(=O)c2c(=O)oc(Cl)cc2o1 (configuration not stated)
- GI50 (KM12): 10.2 µM (inactive)
- GI50 (K562): 3.06 µM (inactive)
- GI50 (MCF7): 4.16 µM (inactive)
- GI50 (CAKI-1): 4.73 µM (inactive)
- GI50 (SK-MEL-5): 8.15 µM (inactive)
- GI50 (COLO 205): 8.49 µM (inactive)
- GI50 (OVCAR-4): 12.6 µM (inactive)
- GI50 (IGROV-1): 5.09 µM (inactive)
- GI50 (EKVX): 12.4 µM (inactive)
- GI50 (TK-10): 6.58 µM (inactive)
- GI50 (OVCAR-8): 3.39 µM (inactive)
- GI50 (NCI-H522): 4.13 µM (inactive)
- GI50 (A498): 18.2 µM (inactive)
- GI50 (BT-549): 2.47 µM (inactive)
- GI50 (SR): 2.7 µM (inactive)
- GI50 (MOLT-4): 2.81 µM (inactive)
- GI50 (SN12C): 6.28 µM (inactive)
- GI50 (OVCAR-3): 6.78 µM (inactive)
- GI50 (T47D): 4.61 µM (inactive)
- GI50 (U-251): 7.19 µM (inactive)
- GI50 (HCT-116): 6.38 µM (inactive)
- GI50 (LOX IMVI): 4.62 µM (inactive)
- GI50 (NCI-H460): 16.4 µM (inactive)
- GI50 (HL-60): 2.84 µM (inactive)
- GI50 (NCI/ADR-RES): 20.9 µM (inactive)
- GI50 (RPMI-8226): 2.67 µM (inactive)
- GI50 (HCC 2998): 6.59 µM (inactive)
- GI50 (HCT-15): 4.33 µM
- GI50 (UACC-62): 11.4 µM (inactive)
- GI50 (SF-268): 3.82 µM (inactive)
- GI50 (HOP-62): 12.5 µM (inactive)
- GI50 (NCI-H23): 10.9 µM (inactive)
- GI50 (Malme-3M): 3.17 µM (inactive)
- GI50 (MDA-MB-231): 6.1 µM (inactive)
- GI50 (SK-MEL-2): 12.5 µM (inactive)
- GI50 (UO-31): 10.9 µM (inactive)
- GI50 (SK-MEL-28): 4.13 µM (inactive)
- GI50 (MDA-N): 2.85 µM (inactive)
- GI50 (A549): 16.1 µM (inactive)
- GI50 (SK-OV-3): 14.4 µM (inactive)
- GI50 (HOP-92): 7.31 µM (inactive)
- GI50 (RXF 393): 4.38 µM (inactive)
- GI50 (SNB-75): 4.91 µM (inactive)
- GI50 (NCI-H226): 19.7 µM (inactive)
- GI50 (SF-295): 16 µM (inactive)
- GI50 (HT-29): 3.52 µM (inactive)
- GI50 (SW-620): 3.18 µM (inactive)
- GI50 (M14): 4.15 µM (inactive)
- GI50 (CCRF-CEM): 2.7 µM (inactive)
- GI50 (DU-145): 17.3 µM (inactive)
- GI50 (OVCAR-5): 17.8 µM (inactive)
- GI50 (ACHN): 12.2 µM (inactive)
- GI50 (MDA-MB-435): 4.52 µM (inactive)
- GI50 (UACC-257): 8 µM (inactive)
- GI50 (SF-539): 5.79 µM (inactive)
- GI50 (786-0): 9.12 µM (inactive)
- GI50 (PC-3): 8.93 µM (inactive)
- GI50 (Hs-578T): 3.07 µM (inactive)
- GI50 (SNB-19): 10.8 µM (inactive)

Structure (SMILES): COc1ccc(N2C(=O)CC(=O)N(NC(=O)C(C)Oc3ccccc3C)C2=S)cc1 (configuration not stated)
- GI50 (KM12): > 100 µM (inactive)
- GI50 (K562): > 100 µM (inactive)
- GI50 (MCF7): > 100 µM (inactive)
- GI50 (CAKI-1): > 100 µM (inactive)
- GI50 (SK-MEL-5): > 100 µM (inactive)
- GI50 (COLO 205): > 100 µM (inactive)
- GI50 (OVCAR-4): > 100 µM (inactive)
- GI50 (IGROV-1): > 100 µM (inactive)
- GI50 (EKVX): > 100 µM (inactive)
- GI50 (TK-10): > 100 µM (inactive)
- GI50 (OVCAR-8): > 100 µM (inactive)
- GI50 (NCI-H522): > 100 µM (inactive)
- GI50 (A498): > 100 µM (inactive)
- GI50 (BT-549): > 100 µM (inactive)
- GI50 (SR): > 100 µM (inactive)
- GI50 (MOLT-4): > 100 µM (inactive)
- GI50 (SN12C): > 100 µM (inactive)
- GI50 (OVCAR-3): > 100 µM (inactive)
- GI50 (T47D): > 100 µM (inactive)
- GI50 (U-251): > 100 µM (inactive)
- GI50 (HCT-116): > 100 µM (inactive)
- GI50 (LOX IMVI): > 100 µM (inactive)
- GI50 (NCI-H460): > 100 µM (inactive)
- GI50 (HL-60): > 100 µM (inactive)
- GI50 (NCI/ADR-RES): > 100 µM (inactive)
- GI50 (RPMI-8226): > 100 µM (inactive)
- GI50 (HCC 2998): > 100 µM (inactive)
- GI50 (HCT-15): > 100 µM
- GI50 (UACC-62): > 100 µM (inactive)
- GI50 (SF-268): > 100 µM (inactive)
- GI50 (HOP-62): > 100 µM (inactive)
- GI50 (NCI-H23): > 100 µM (inactive)
- GI50 (Malme-3M): > 100 µM (inactive)
- GI50 (MDA-MB-231): > 100 µM (inactive)
- GI50 (SK-MEL-2): > 100 µM (inactive)
- GI50 (UO-31): > 100 µM (inactive)
- GI50 (SK-MEL-28): > 100 µM (inactive)
- GI50 (MDA-N): > 100 µM (inactive)
- GI50 (A549): > 100 µM (inactive)
- GI50 (SK-OV-3): > 100 µM (inactive)
- GI50 (HOP-92): > 100 µM (inactive)
- GI50 (RXF 393): > 100 µM (inactive)
- GI50 (SNB-75): > 100 µM (inactive)
- GI50 (NCI-H226): > 100 µM (inactive)
- GI50 (SF-295): > 100 µM (inactive)
- GI50 (HT-29): > 100 µM (inactive)
- GI50 (SW-620): > 100 µM (inactive)
- GI50 (M14): > 100 µM (inactive)
- GI50 (CCRF-CEM): > 100 µM (inactive)
- GI50 (DU-145): > 100 µM (inactive)
- GI50 (OVCAR-5): > 100 µM (inactive)
- GI50 (ACHN): > 100 µM (inactive)
- GI50 (MDA-MB-435): > 100 µM (inactive)
- GI50 (UACC-257): > 100 µM (inactive)
- GI50 (SF-539): > 100 µM (inactive)
- GI50 (786-0): > 100 µM (inactive)
- GI50 (PC-3): > 100 µM (inactive)
- GI50 (Hs-578T): > 100 µM (inactive)
- GI50 (SNB-19): > 100 µM (inactive)

Structure (SMILES): COc1c(O)ccc2c1CN1CCc3cc4c(cc3C1C2)OCO4 (configuration not stated)
- GI50 (KM12): 22.1 µM (inactive)
- GI50 (K562): 20 µM (inactive)
- GI50 (MCF7): 21.6 µM (inactive)
- GI50 (CAKI-1): 38.3 µM (inactive)
- GI50 (SK-MEL-5): 35 µM (inactive)
- GI50 (COLO 205): 36.1 µM (inactive)
- GI50 (OVCAR-4): 23.1 µM (inactive)
- GI50 (IGROV-1): 28.6 µM (inactive)
- GI50 (EKVX): 47.8 µM (inactive)
- GI50 (TK-10): 28.9 µM (inactive)
- GI50 (OVCAR-8): 33.9 µM (inactive)
- GI50 (NCI-H522): 7.43 µM (inactive)
- GI50 (A498): 20.8 µM (inactive)
- GI50 (BT-549): 28.2 µM (inactive)
- GI50 (SR): 0.441 µM (active)
- GI50 (MOLT-4): 2.43 µM (inactive)
- GI50 (SN12C): 27.7 µM (inactive)
- GI50 (OVCAR-3): 26.4 µM (inactive)
- GI50 (T47D): 20.9 µM (inactive)
- GI50 (U-251): 29.6 µM (inactive)
- GI50 (HCT-116): 24 µM (inactive)
- GI50 (LOX IMVI): 22.8 µM (inactive)
- GI50 (NCI-H460): 18.4 µM (inactive)
- GI50 (HL-60): 20 µM (inactive)
- GI50 (NCI/ADR-RES): 20.9 µM (inactive)
- GI50 (RPMI-8226): 32.4 µM (inactive)
- GI50 (HCC 2998): 31.6 µM (inactive)
- GI50 (HCT-15): 21.6 µM
- GI50 (UACC-62): 27.5 µM (inactive)
- GI50 (SF-268): 37 µM (inactive)
- GI50 (HOP-62): 36.4 µM (inactive)
- GI50 (NCI-H23): 36.2 µM (inactive)
- GI50 (Malme-3M): 33.9 µM (inactive)
- GI50 (MDA-MB-231): 29.3 µM (inactive)
- GI50 (SK-MEL-2): 30.6 µM (inactive)
- GI50 (UO-31): 29.6 µM (inactive)
- GI50 (SK-MEL-28): 45.1 µM (inactive)
- GI50 (MDA-N): 26.4 µM (inactive)
- GI50 (A549): 32.5 µM (inactive)
- GI50 (SK-OV-3): 23.1 µM (inactive)
- GI50 (HOP-92): 51.8 µM (inactive)
- GI50 (RXF 393): 12.6 µM (inactive)
- GI50 (SNB-75): 14.5 µM (inactive)
- GI50 (NCI-H226): 44.5 µM (inactive)
- GI50 (SF-295): 29.7 µM (inactive)
- GI50 (HT-29): 32.7 µM (inactive)
- GI50 (SW-620): 29.9 µM (inactive)
- GI50 (M14): 34.8 µM (inactive)
- GI50 (CCRF-CEM): 30.8 µM (inactive)
- GI50 (DU-145): 21.8 µM (inactive)
- GI50 (OVCAR-5): > 65.5 µM (inactive)
- GI50 (ACHN): 16.3 µM (inactive)
- GI50 (MDA-MB-435): 21.8 µM (inactive)
- GI50 (UACC-257): 31 µM (inactive)
- GI50 (SF-539): 40 µM (inactive)
- GI50 (786-0): 23.9 µM (inactive)
- GI50 (PC-3): 23.4 µM (inactive)
- GI50 (Hs-578T): 27.4 µM (inactive)
- GI50 (SNB-19): 31.3 µM (inactive)
